Experimental data from ChEMBL document CHEMBL1697781, “Assessment of the health effects of chemicals in humans: II. Construction of an adverse effects database for QSAR modeling” (Curr Drug Discov Technol, 2004).
Numbered stars: 1 amine (or outer) side, 2 acyl side, 3 side chain; on linkers, the order of the positions; unused ones are H or OH. Bridge positions count the residues as written; N and C are the ends. Square brackets hold non-standard residues; d marks the D form. Peptide text beside a SMILES is read from it. I, II: the chains in the order shown. Actinocin(9to1) = Cc1c2oc3c(C)ccc(C(=O)[*:1])c3nc-2c(C(=O)[*:2])c(N)c1=O; NMeV = CN[C@H](C(=O)O)C(C)C; Sar = CNCC(=O)O

Assays:
Conditions in all cases: human; call rule not given here
Hepatotoxicity [1] = assay: FDA HLAED, liver enzyme composite activity
Hepatotoxicity [2] = assay: FDA HLAED, serum glutamic pyruvic transaminase (SGPT) increase
Hepatotoxicity [3] = assay: FDA HLAED, serum glutamic oxaloacetic transaminase (SGOT) increase
Hepatotoxicity [4] = assay: FDA HLAED, alkaline phosphatase increase

SMILES: CC(=O)N[C@@H](CS)C(=O)O [ACETYLCYSTEINE]
- Composite Activity - Active (Hepatotoxicity [1]): 1
- Composite Activity - Marginal (Hepatotoxicity [1]): 0
- SGPT Increase - Activity Score (Hepatotoxicity [2]): Active
- SGPT Increase - Index Value (Hepatotoxicity [2]): 4.8
- SGPT Increase - Number of Reports (Hepatotoxicity [2]): >= 4

SMILES: Cc1c2oc3c(C)ccc(C(=O)N[C@@H]4C(=O)N[C@H](C(C)C)C(=O)N5CCC[C@H]5C(=O)N(C)CC(=O)N(C)[C@@H](C(C)C)C(=O)O[C@@H]4C)c3nc-2c(C(=O)N[C@@H]2C(=O)N[C@H](C(C)C)C(=O)N3CCC[C@H]3C(=O)N(C)CC(=O)N(C)[C@@H](C(C)C)C(=O)O[C@@H]2C)c(N)c1=O [DACTINOMYCIN] (I: T[dV]P[Sar][NMeV] / II: T[dV]P[Sar][NMeV]; ester I:1-I:C, II:1-II:C; linker I:N-II:N via Actinocin(9to1))
- Composite Activity - Active (Hepatotoxicity [1]): 2
- Composite Activity - Marginal (Hepatotoxicity [1]): 0
- Composite Activity - Score (Hepatotoxicity [1]): Active
- SGOT Increase - Activity Score (Hepatotoxicity [3]): Active
- SGOT Increase - Index Value (Hepatotoxicity [3]): 29.6
- SGOT Increase - Number of Reports (Hepatotoxicity [3]): >= 4
- SGPT Increase - Activity Score (Hepatotoxicity [2]): Active
- SGPT Increase - Index Value (Hepatotoxicity [2]): 23.7
- SGPT Increase - Number of Reports (Hepatotoxicity [2]): >= 4

SMILES: C#C[C@]1(O)CC[C@H]2[C@@H]3CCC4=Cc5oncc5C[C@]4(C)[C@H]3CC[C@@]21C [DANAZOL]
- Composite Activity - Active (Hepatotoxicity [1]): 1
- Composite Activity - Marginal (Hepatotoxicity [1]): 0
- SGPT Increase - Activity Score (Hepatotoxicity [2]): Active
- SGPT Increase - Index Value (Hepatotoxicity [2]): 10.2
- SGPT Increase - Number of Reports (Hepatotoxicity [2]): >= 4

SMILES: CC(O)(P(=O)(O)O)P(=O)(O)O [ETIDRONIC ACID]
- Composite Activity - Active (Hepatotoxicity [1]): 1
- Composite Activity - Marginal (Hepatotoxicity [1]): 0
- Alkaline Phosphatase Increase - Activity Score (Hepatotoxicity [4]): Active
- Alkaline Phosphatase Increase - Index Value (Hepatotoxicity [4]): 8.6
- Alkaline Phosphatase Increase - Number of Reports (Hepatotoxicity [4]): >= 4

SMILES: FC(F)(F)C(Cl)Br (stereo unspecified) [HALOTHANE]
- Composite Activity - Active (Hepatotoxicity [1]): 1
- Composite Activity - Marginal (Hepatotoxicity [1]): 0
- SGOT Increase - Activity Score (Hepatotoxicity [3]): Active
- SGOT Increase - Index Value (Hepatotoxicity [3]): 16.5
- SGOT Increase - Number of Reports (Hepatotoxicity [3]): >= 4

SMILES: CN1CCN(C2=Nc3ccccc3Oc3ccc(Cl)cc32)CC1 [LOXAPINE]
- Composite Activity - Active (Hepatotoxicity [1]): 2
- Composite Activity - Marginal (Hepatotoxicity [1]): 0
- Composite Activity - Score (Hepatotoxicity [1]): Active
- SGOT Increase - Activity Score (Hepatotoxicity [3]): Active
- SGOT Increase - Index Value (Hepatotoxicity [3]): 9.9
- SGOT Increase - Number of Reports (Hepatotoxicity [3]): >= 4
- SGPT Increase - Activity Score (Hepatotoxicity [2]): Active
- SGPT Increase - Index Value (Hepatotoxicity [2]): 9.9
- SGPT Increase - Number of Reports (Hepatotoxicity [2]): >= 4

SMILES: Cc1cccc(Nc2ccccc2C(=O)O)c1C [MEFENAMIC ACID]
- Composite Activity - Active (Hepatotoxicity [1]; Liver): 2
- Composite Activity - Marginal (Hepatotoxicity [1]; Liver): 0
- Composite Activity - Score (Hepatotoxicity [1]; Liver): Active
- SGOT Increase - Activity Score (Hepatotoxicity [3]): Active
- SGOT Increase - Index Value (Hepatotoxicity [3]): 26
- SGOT Increase - Number of Reports (Hepatotoxicity [3]): >= 4
- SGPT Increase - Activity Score (Hepatotoxicity [2]): Active
- SGPT Increase - Index Value (Hepatotoxicity [2]): 19.5
- SGPT Increase - Number of Reports (Hepatotoxicity [2]): < 4

SMILES: C[C@](N)(Cc1ccc(O)c(O)c1)C(=O)O [METHYLDOPA]
- Composite Activity - Active (Hepatotoxicity [1]): 0
- Composite Activity - Marginal (Hepatotoxicity [1]): 0

SMILES: C[C@H]1C[C@@H]2[C@H]([C@@H](O)C[C@@]3(C)[C@H]2CC[C@]3(O)C(=O)COC(=O)CCCCCCC(=O)N(C)CCS(=O)(=O)O)[C@@]2(C)C=CC(=O)C=C12 [METHYLPREDNISOLONE 21-SULEPTANIC ACID ESTER]
- Composite Activity - Active (Hepatotoxicity [1]): 0
- Composite Activity - Marginal (Hepatotoxicity [1]): 0

SMILES: CCC(=O)O[C@]1(C(=O)COC(C)=O)CC[C@H]2[C@@H]3C[C@H](C)C4=CC(=O)C=C[C@]4(C)[C@H]3[C@@H](O)C[C@@]21C [METHYLPREDNISOLONE ACEPONATE]
- Composite Activity - Active (Hepatotoxicity [1]): 0
- Composite Activity - Marginal (Hepatotoxicity [1]): 0

SMILES: C[C@H]1C[C@@H]2[C@H]([C@@H](O)C[C@@]3(C)[C@H]2CC[C@]3(O)C(=O)COC(=O)CCC(=O)O)[C@@]2(C)C=CC(=O)C=C12 [METHYLPREDNISOLONE HEMISUCCINATE]
- Composite Activity - Active (Hepatotoxicity [1]): 0
- Composite Activity - Marginal (Hepatotoxicity [1]): 0

SMILES: C[C@H]1C[C@@H]2[C@H]([C@@H](O)C[C@@]3(C)[C@H]2CC[C@]3(O)C(=O)CO)[C@@]2(C)C=CC(=O)C=C12 [METHYLPREDNISOLONE]
- Composite Activity - Active (Hepatotoxicity [1]): 0
- Composite Activity - Marginal (Hepatotoxicity [1]): 0

SMILES: Cc1ncc([N+](=O)[O-])n1CCO [METRONIDAZOLE]
- Composite Activity - Active (Hepatotoxicity [1]): 1
- Composite Activity - Marginal (Hepatotoxicity [1]): 0
- Alkaline Phosphatase Increase - Activity Score (Hepatotoxicity [4]): Active
- Alkaline Phosphatase Increase - Index Value (Hepatotoxicity [4]): 6.2
- Alkaline Phosphatase Increase - Number of Reports (Hepatotoxicity [4]): >= 4

SMILES: CCOc1ccc2ccccc2c1C(=O)N[C@@H]1C(=O)N2[C@@H]1SC(C)(C)[C@@H]2C(=O)O [NAFCILLIN]
- Composite Activity - Active (Hepatotoxicity [1]): 1
- Composite Activity - Marginal (Hepatotoxicity [1]): 0
- Alkaline Phosphatase Increase - Activity Score (Hepatotoxicity [4]): Active
- Alkaline Phosphatase Increase - Index Value (Hepatotoxicity [4]): 10.9
- Alkaline Phosphatase Increase - Number of Reports (Hepatotoxicity [4]): >= 4

SMILES: CNCCC=C1c2ccccc2CCc2ccccc21 [NORTRIPTYLINE]
- Composite Activity - Active (Hepatotoxicity [1]; Liver): 1
- Composite Activity - Marginal (Hepatotoxicity [1]; Liver): 1
- Alkaline Phosphatase Increase - Activity Score (Hepatotoxicity [4]): Active
- Alkaline Phosphatase Increase - Index Value (Hepatotoxicity [4]): 15.4
- Alkaline Phosphatase Increase - Number of Reports (Hepatotoxicity [4]): >= 4
- SGPT Increase - Activity Score (Hepatotoxicity [2]): Marginally Active
- SGPT Increase - Index Value (Hepatotoxicity [2]): 11.6
- SGPT Increase - Number of Reports (Hepatotoxicity [2]): < 4

SMILES: CC(C)(S)[C@@H](N)C(=O)O [PENICILLAMINE]
- Composite Activity - Active (Hepatotoxicity [1]): 0
- Composite Activity - Marginal (Hepatotoxicity [1]): 0

SMILES: OCCN1CCN(CCCN2c3ccccc3Sc3ccc(Cl)cc32)CC1 [PERPHENAZINE]
- Composite Activity - Active (Hepatotoxicity [1]): 0
- Composite Activity - Marginal (Hepatotoxicity [1]): 0

SMILES: O=C1NC(=O)C(c2ccccc2)(c2ccccc2)N1 [PHENYTOIN]
- Composite Activity - Active (Hepatotoxicity [1]; Liver): 0
- Composite Activity - Marginal (Hepatotoxicity [1]; Liver): 0

SMILES: COc1cc2nc(N3CCN(C(=O)c4ccco4)CC3)nc(N)c2cc1OC [PRAZOSIN]
- Composite Activity - Active (Hepatotoxicity [1]): 0
- Composite Activity - Marginal (Hepatotoxicity [1]): 0

SMILES: C[C@]12C=CC(=O)C=C1CC[C@@H]1[C@@H]2C(=O)C[C@@]2(C)[C@H]1CC[C@]2(O)C(=O)CO [PREDNISONE]
- Composite Activity - Active (Hepatotoxicity [1]): 0
- Composite Activity - Marginal (Hepatotoxicity [1]): 0

SMILES: CCC1(c2ccccc2)C(=O)NCNC1=O [PRIMIDONE]
- Composite Activity - Active (Hepatotoxicity [1]): 0
- Composite Activity - Marginal (Hepatotoxicity [1]): 0

SMILES: CCCN(CCC)S(=O)(=O)c1ccc(C(=O)O)cc1 [PROBENECID]
- Composite Activity - Active (Hepatotoxicity [1]): 0
- Composite Activity - Marginal (Hepatotoxicity [1]): 0

SMILES: CNNCc1ccc(C(=O)NC(C)C)cc1 [PROCARBAZINE]
- Composite Activity - Active (Hepatotoxicity [1]): 0
- Composite Activity - Marginal (Hepatotoxicity [1]): 0

SMILES: CCCc1cc(=O)[nH]c(=S)[nH]1 [PROPYLTHIOURACIL]
- Composite Activity - Active (Hepatotoxicity [1]; Liver): 0
- Composite Activity - Marginal (Hepatotoxicity [1]; Liver): 0

SMILES: C=C[C@H]1C[N@@]2CC[C@H]1C[C@@H]2[C@@H](O)c1ccnc2ccc(OC)cc12 [QUINIDINE]
- Composite Activity - Active (Hepatotoxicity [1]): 0
- Composite Activity - Marginal (Hepatotoxicity [1]): 0

SMILES: CC(=O)S[C@@H]1CC2=CC(=O)CC[C@]2(C)[C@H]2CC[C@@]3(C)[C@@H](CC[C@@]34CCC(=O)O4)[C@H]12 [SPIRONOLACTONE]
- Composite Activity - Active (Hepatotoxicity [1]): 0
- Composite Activity - Marginal (Hepatotoxicity [1]): 0

SMILES: Nc1ccc(S(=O)(=O)Nc2ncccn2)cc1 [SULFADIAZINE]
- Composite Activity - Active (Hepatotoxicity [1]; Liver): 0
- Composite Activity - Marginal (Hepatotoxicity [1]; Liver): 0

SMILES: O=C(O)c1cc(/N=N/c2ccc(S(=O)(=O)Nc3ccccn3)cc2)ccc1O [SULFASALAZINE]
- Composite Activity - Active (Hepatotoxicity [1]): 1
- Composite Activity - Marginal (Hepatotoxicity [1]): 0
- SGPT Increase - Activity Score (Hepatotoxicity [2]): Active
- SGPT Increase - Index Value (Hepatotoxicity [2]): 4
- SGPT Increase - Number of Reports (Hepatotoxicity [2]): >= 4

SMILES: CN(C)[C@@H]1C(O)=C(C(N)=O)C(=O)[C@@]2(O)C(O)=C3C(=O)c4c(O)cccc4[C@@](C)(O)[C@H]3C[C@@H]12 [TETRACYCLINE]
- Composite Activity - Active (Hepatotoxicity [1]): 0
- Composite Activity - Marginal (Hepatotoxicity [1]): 0

SMILES: CSc1ccc2c(c1)N(CCC1CCCCN1C)c1ccccc1S2 (stereo unspecified) [THIORIDAZINE]
- Composite Activity - Active (Hepatotoxicity [1]): 0
- Composite Activity - Marginal (Hepatotoxicity [1]): 1
- Alkaline Phosphatase Increase - Activity Score (Hepatotoxicity [4]): Marginally Active
- Alkaline Phosphatase Increase - Index Value (Hepatotoxicity [4]): 3.2
- Alkaline Phosphatase Increase - Number of Reports (Hepatotoxicity [4]): >= 4

SMILES: S=P(N1CC1)(N1CC1)N1CC1 [THIOTEPA]
- Composite Activity - Active (Hepatotoxicity [1]): 0
- Composite Activity - Marginal (Hepatotoxicity [1]): 0

SMILES: NC[C@H]1O[C@H](O[C@H]2[C@H](O)[C@@H](O[C@H]3O[C@H](CO)[C@@H](O)[C@H](N)[C@H]3O)[C@H](N)C[C@@H]2N)[C@H](N)C[C@@H]1O [TOBRAMYCIN]
- Composite Activity - Active (Hepatotoxicity [1]): 0
- Composite Activity - Marginal (Hepatotoxicity [1]): 0

SMILES: N[C@@H]1C[C@H]1c1ccccc1.N[C@H]1C[C@@H]1c1ccccc1 [TRANYLCYPROMINE]
- Composite Activity - Active (Hepatotoxicity [1]; Liver): 0
- Composite Activity - Marginal (Hepatotoxicity [1]; Liver): 0

SMILES: CN1CCN(CCCN2c3ccccc3Sc3ccc(C(F)(F)F)cc32)CC1 [TRIFLUOPERAZINE]
- Composite Activity - Active (Hepatotoxicity [1]): 0
- Composite Activity - Marginal (Hepatotoxicity [1]): 0

SMILES: CC[C@]1(O)C[C@H]2CN(CCc3c([nH]c4ccccc34)[C@@](C(=O)OC)(c3cc4c(cc3OC)N(C=O)[C@H]3[C@@](O)(C(=O)OC)[C@H](OC(C)=O)[C@]5(CC)C=CCN6CC[C@]43[C@@H]65)C2)C1 [VINCRISTINE]
- Composite Activity - Active (Hepatotoxicity [1]): 0
- Composite Activity - Marginal (Hepatotoxicity [1]): 0
